We go through 2 compounds from ChEMBL document CHEMBL3421630, “Myxochelins target human 5-lipoxygenase” (J Nat Prod, 2015).

The term pIC50 denotes the IC50 on a negative log10 scale, so that one unit is a factor of ten.

Test [1] deals with K562. Kind of test: Inhibition of cell proliferation of human K562 cells after 72 hrs by cell-titer-blue assay. In kind it is functional, cell-based. Particulars: K562, 72 h.
Test [2] concerns HeLa. Kind of test: Inhibition of cell proliferation of human HeLa cells after 72 hrs by methylene blue dye based assay. In kind it is functional.
The nature of test [3]: Siderophore activity by chrome azurol S assay.
Test [4] deals with T1, Prostaglandin E synthase (Homo sapiens) (UniProt O14684).
T1 sequence (whole entry): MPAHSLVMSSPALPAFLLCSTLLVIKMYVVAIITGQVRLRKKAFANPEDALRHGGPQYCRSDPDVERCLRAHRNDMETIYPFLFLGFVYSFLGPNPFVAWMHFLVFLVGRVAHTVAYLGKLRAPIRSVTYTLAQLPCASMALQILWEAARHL
Kind of test: Inhibition of m-PGES1 in IL-1beta-induced human A549 cell microsomes assessed as reduction in […]PGE2 production up to 100 uM pre-incubated for 15 mins before PGH2 addition by UV detection based reverse-phase high-performance liquid chromatography.

The target in test [5] is T2, Polyunsaturated fatty acid 5-lipoxygenase (Homo sapiens) (UniProt P09917).
T2 sequence (whole entry): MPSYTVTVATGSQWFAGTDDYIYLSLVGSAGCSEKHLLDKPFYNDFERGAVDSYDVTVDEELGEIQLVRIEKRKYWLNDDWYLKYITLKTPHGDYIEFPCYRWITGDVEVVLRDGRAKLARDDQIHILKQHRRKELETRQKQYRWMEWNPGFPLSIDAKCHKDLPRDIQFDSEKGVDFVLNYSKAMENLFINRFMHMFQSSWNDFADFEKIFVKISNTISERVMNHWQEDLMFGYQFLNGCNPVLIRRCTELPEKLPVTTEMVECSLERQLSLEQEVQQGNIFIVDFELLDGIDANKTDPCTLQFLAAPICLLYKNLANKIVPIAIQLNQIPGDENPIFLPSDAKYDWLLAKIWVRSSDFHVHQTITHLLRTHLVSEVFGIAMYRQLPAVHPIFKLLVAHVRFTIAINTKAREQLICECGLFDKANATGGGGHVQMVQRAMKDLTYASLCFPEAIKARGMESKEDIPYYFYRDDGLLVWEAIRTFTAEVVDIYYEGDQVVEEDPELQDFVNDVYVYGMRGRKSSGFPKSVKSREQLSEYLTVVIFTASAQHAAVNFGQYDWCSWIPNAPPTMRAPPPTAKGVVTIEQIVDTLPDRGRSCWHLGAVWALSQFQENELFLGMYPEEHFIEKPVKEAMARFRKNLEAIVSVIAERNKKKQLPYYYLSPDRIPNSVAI
Kind of test: (§1) Inhibition of human recombinant 5-LOX expressed in Escherichia coli BL21 DE3 assessed as reduction in 5-LO product formation pre-incubated for 10 mins by RP-HPLC method.

Test [6] addresses T3, Polyunsaturated fatty acid 5-lipoxygenase (Homo sapiens, UniProt P09917).
T3 sequence (P09917 whole entry): T2 sequence (whole entry)
The description is as §1.

The target of test [7] is T2, Polyunsaturated fatty acid 5-lipoxygenase (Homo sapiens). Kind of test: Inhibition of human recombinant 5-LOX expressed in Escherichia coli BL21 DE3 assessed as reduction in 5-LO product formation at 10 uM pre-incubated for 10 mins by RP-HPLC method.
The target is the same in test [8]. Particulars: 3 uM.
Description: Inhibition of human recombinant 5-LOX expressed in Escherichia coli BL21 DE3 assessed as reduction in 5-LO product formation at 3 uM pre-incubated for 10 mins by RP-HPLC method

pIC50: −log10 of the molar value. Active and inactive are the calls of the source. The rule behind the calls is not given here.

Regarding `O=C(NCCCC[C@@H](CO)NC(=O)c1cccc(O)c1O)c1cccc(O)c1O`, the figures for the pIC50 in test [1], in test [2] and in test [6] were 5.41, 3.52 and 5.72, respectively. In addition, in test [3], the result was Active. For the same compound, in test [4], the inhibition result is “inactive”. In test [5], the inhibition entry was “Dose-dependent effect”. For the same compound, the inhibition result in test [7] is “Active”.
Take `CC(c1cc2ccccc2s1)N(O)C(N)=O` (stereo not drawn): in test [8], the inhibition entry was “Active”.
